The record followed here is patent US9296745B2, “Diacylglycerol acyltransferase 2 inhibitors” (Pfizer Inc., priority 2012, dated 2016).

Chain of Human DGAT2 (hDGAT2) (Q96PD7 whole entry): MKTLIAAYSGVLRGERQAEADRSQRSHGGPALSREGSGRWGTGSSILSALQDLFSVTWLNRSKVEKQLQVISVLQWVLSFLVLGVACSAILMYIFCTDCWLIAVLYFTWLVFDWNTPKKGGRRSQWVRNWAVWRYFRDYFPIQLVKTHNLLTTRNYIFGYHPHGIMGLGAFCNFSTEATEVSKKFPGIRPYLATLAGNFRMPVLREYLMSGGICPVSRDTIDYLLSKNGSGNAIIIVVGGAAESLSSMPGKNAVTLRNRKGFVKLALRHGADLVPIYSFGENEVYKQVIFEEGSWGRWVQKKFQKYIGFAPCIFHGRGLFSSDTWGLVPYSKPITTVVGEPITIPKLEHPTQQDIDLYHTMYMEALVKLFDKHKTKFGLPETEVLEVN

One assay deals with Human DGAT2 (hDGAT2) (Homo sapiens (Human), UniProt Q96PD7). The experiment in a line: In vitro DGAT2 assay, IC50 determination with hDGAT2 membrane fraction. The assay is classed as biochemical. The following applies: geometric mean; background for complete inhibition of DGAT2 obtained with 50 μM (1R,2R)-2-({3′-Fluoro-4′-[(6-fluoro-1,3-benzothiazol-2-yl)amino]-1,1′-biphenyl-4-yl}carbonyl)cyclopentanecarboxylic acid; read-out: DGAT2 IC50. The method, then:
Recombinant baculovirus for the FLAG-tagged hDGAT2 was generated in SF9 insect cells using Bac-to-Bac baculovirus expression system (Invitrogen) according to the manufacturer's protocol. For the expression of hDGAT2, SF9 cells (20 L) grown in Sf900II media were infected with hDGAT2 baculovirus at a multiplicity of infection of 1 in a Wave Bioreactor System 20/50P wave bag (GE Healthcare). After 40 hours of infection, the cells were then harvested by centrifugation at 5,000×g. The cell pellets were washed by resuspending in phosphate buffered saline (PBS) and collected by centrifugation at 5,000×g. The cell paste was flash frozen in liquid N2 and stored at −80° C. until needed. All operations below were at 4° C. unless otherwise noted. The cells were resuspended in lysis buffer (50 mM Tris-HCl, pH 8.0, 250 mM sucrose) including 1 mM ethylenediaminetetraacetic acid (EDTA) and the complete protease inhibitor cocktail (Roche Diagnostics) at a ratio of 3 ml buffer per 1 g cell paste. The cells were lysed by dounce homogenizer. The cell debris was removed by centrifugation at 1,000×g for 20 min, and the supernatant was centrifuged at 100,000×g for 1 hour. The resulting pellet was rinsed three times by filling ultracentrifuge tubes to the top with ice cold PBS before decanting. The washed pellet was resuspended with gentle stirring for 1 hour in lysis buffer containing 8 mM 3-[(3-cholamidopropyl)dimethylammonio]-1-propanesulfonate (CHAPS) at a ratio of 1 mL buffer per 1 g of original cell paste and centrifuged again at 100,000×g for 1 hour. The resulting supernatant (hDGAT2 membrane fraction) was aliquotted, flash frozen in liquid N2, and stored at −80° C. until use.
To 1 μL of compounds dissolved in 100% DMSO and spotted at the bottom of each well, 5 μL of 0.04% bovine serum albumin (BSA) (fatty acid free, Sigma Aldrich) was added and the mixture was incubated at room temperature for 20 minutes. To this mixture, 10 μL of hDGAT2 membrane fraction (0.01 mg/mL) diluted in 100 mM Hepes-NaOH, pH 7.4, 20 mM MgCl2 containing 200 nM methyl arachidonyl fluorophosphonate (Cayman Chemical; dried from ethyl acetate stock solution under argon gas and dissolved in DMSO as 5 mM stock) was added. […] The reaction mixtures were incubated at room temperature for 40 min and the reactions were stopped by addition of 5 μL of 1% H3PO4. After the addition of 45 μL MicroScint-E (Perkin-Elmer), plates were sealed with Top Seal-A covers (Perkin-Elmer) and phase partitioning of substrates and products was achieved using a HT-91100 microplate orbital shaker (Big Bear Automation, Santa Clara, Calif.). Plates were centrifuged at 2,000×g for 1 min in an Allegra 6R Centrifuge (Beckman Coulter) and then were sealed again with fresh covers before reading in a 1450 Microbeta Wallac Trilux Scintillation Counter (Perkin Elmer). DGAT2 activity was measured by quantifying the generated product [^14C]tridecanoylglycerol in the upper organic phase.
Inhibitors were tested at eleven different concentrations to generate IC50 values for each compound. […] Results are reported as geometric mean IC50 values.
As to `CN(C)C(=O)[C@@H]1CCCN(c2ccc3nc(-c4cccc(OC(F)F)c4)[nH]c3n2)C1` [Example 60, (R)-1-(2-(3-(Difluoromethoxy)phenyl)-3H-imidazo[4,5-b]pyridin-5-yl)-N,N-dimethylpiperidine-3-carboxamide], the IC50 (commonly the point on the concentration scale where inhibition reaches its midpoint) worked out at 892 nM. As to `O=C(C1CCCC1)N1CCCC(c2nc3ccc(N4CCC[C@@H](C(=O)N5CCCC5)C4)nc3[nH]2)C1` (some centres unmarked) [Example 62], the IC50 turned out to be 241 nM.

On to `O=C([C@@H]1CCCN(c2ccc3nc(-c4ccnc(C5CC5)n4)[nH]c3n2)C1)N1CC[C@H](F)C1` [Example 65, ((R)-1-(2-(2-Cyclopropylpyrimidin-4-yl)-3H-imidazo[4,5-b]pyridin-5-yl)piperidin-3-yl)((S)-3-fluoropyrrolidin-1-yl)methanone], for which the IC50 was 59.3 nM. Still for that read-out and setting: with `O=C([C@@H]1CCCN(c2ccc3nc(-c4ccnc(C5CC5)n4)[nH]c3n2)C1)N1CCC[C@@H]1CO` [Example 66, ((R)-1-(2-(2-Cyclopropylpyrimidin-4-yl)-3H-imidazo[4,5-b]pyridin-5-yl)piperidin-3-yl)((R)-2-(hydroxymethyl)pyrrolidin-1-yl)methanone] the figure was 1050 nM; with `C[C@@H]1CCCN1C(=O)[C@@H]1CCCN(c2ccc3nc(-c4ccnc(C5CC5)n4)[nH]c3n2)C1` [Example 67, ((R)-1-(2-(2-Cyclopropylpyrimidin-4-yl)-3H-imidazo[4,5-b]pyridin-5-yl)piperidin-3-yl)((R)-2-methylpyrrolidin-1-yl)methanone], 58.2 nM; with `O=C([C@@H]1CCCN(c2ccc3nc(-c4ccnc(C5CC5)n4)[nH]c3n2)C1)N1C[C@@H](F)[C@H](F)C1` [Example 68, ((R)-1-(2-(2-Cyclopropylpyrimidin-4-yl)-3H-imidazo[4,5-b]pyridin-5-yl)piperidin-3-yl)((3R,4R)-3,4-difluoropyrrolidin-1-yl)methanone], 54.7 nM.

Take `O=C([C@@H]1CCCN(c2ccc3nc(-c4ccnc(C5CC5)n4)[nH]c3n2)C1)N1CC[C@@H](F)C1` [Example 69, ((R)-1-(2-(2-Cyclopropylpyrimidin-4-yl)-3H-imidazo[4,5-b]pyridin-5-yl)piperidin-3-yl)((R)-3-fluoropyrrolidin-1-yl)methanone]: the half-inhibitory concentration (IC50) was 35.4 nM. `O=C([C@@H]1CCCN(c2ccc3nc(-c4ccnc(C5CC5)n4)[nH]c3n2)C1)N1CCOCC1` [Example 70, (R)-(1-(2-(2-Cyclopropylpyrimidin-4-yl)-3H-imidazo[4,5-b]pyridin-5-yl)piperidin-3-yl)(morpholino)methanone]: the IC50 amounted to 162 nM. Same read-out and setting: to `CN(C)C(=O)[C@@H]1CCCN(c2ccc3nc(-c4ccnc(C5CC5)n4)[nH]c3n2)C1` [Example 71, (R)-1-(2-(2-Cyclopropylpyrimidin-4-yl)-3H-imidazo[4,5-b]pyridin-5-yl)-N,N-dimethylpiperidine-3-carboxamide] belongs 1470 nM; to `Cc1cnn(C2(c3nc4ccc(N5CCC[C@@H](C(=O)N6CCCC6)C5)nc4[nH]3)CC2)c1` [Example 72], 104 nM. Same read-out and setting: to `O=C([C@@H]1CCCN(c2ccc3nc(C4(n5cc(C6CC6)cn5)CC4)[nH]c3n2)C1)N1CCCC1` [Example 77, (R)-(1-(2-(1-(4-Cyclopropyl-1H-pyrazol-1-yl)cyclopropyl)-3H-imidazo[4,5-b]pyridin-5-yl)piperidin-3-yl)(pyrrolidin-1-yl)methanone] belongs 107 nM; to `O=C([C@@H]1CCCN(c2ccc3nc(C4(n5cccn5)CC4)[nH]c3n2)C1)N1CCCC1` [Example 79, (R)-(1-(2-(1-(1H-Pyrazol-1-yl)cyclopropyl)-3H-imidazo[4,5-b]pyridin-5-yl)piperidin-3-yl)(pyrrolidin-1-yl)methanone], 230 nM.

Take `O=C([C@@H]1CCCN(c2ccc3nc(C4(n5cccn5)CCC4)[nH]c3n2)C1)N1CCCC1` [Example 80, (R)-(1-(2-(1-(1H-Pyrazol-1-yl)cyclobutyl)-3H-imidazo[4,5-b]pyridin-5-yl)piperidin-3-yl)(pyrrolidin-1-yl)methanone]: the half-maximal inhibitory concentration (IC50) was 1400 nM.

The assay is the same for the next values; noted with them: geometric mean; background for complete inhibition of DGAT2 obtained with Example 196-A instead of the cyclopentanecarboxylic acid reference; read-out: DGAT2 IC50 (nM), values in the parentheses.
In the case of `O=C([C@@H]1CCCN(c2ccc3nc(C4(n5cccn5)CC4)[nH]c3n2)C1)N1CCCC1` [Example 79, (R)-(1-(2-(1-(1H-Pyrazol-1-yl)cyclopropyl)-3H-imidazo[4,5-b]pyridin-5-yl)piperidin-3-yl)(pyrrolidin-1-yl)methanone], the 50% inhibitory concentration (IC50) was 238 nM.
